Literature values, collected in patent US20080153788A1, “NOVEL COMPOSITION TO INCREASE MUSCLE STRENGTH” (ORAL DELIVERY TECHNOLOGIES, priority 2006, published 2008).

Assays:
[1] = for injection
[2] = humans; prior-art description

Compound | solubility in oily media [1] | period over which concentration declines after the peak [2] | time to concentration peak after administration [2]
CCCCCCCCCCC(=O)O[C@H]1CC[C@H]2[C@H]3[C@H](CC[C@]12C)[C@H]1CCC(=O)C=C1C[C@H]3C [MENT undecanoate, (7α,17β)-7-methyl-17-[(1-α-oundecyl)oxy]estr-4en-3one] | good solubility | – | –
C[C@]12CC[C@H]3[C@@H](CCC4=CC(O)CC[C@@]43C)[C@@H]1CC[C@@H]2O (stereo partly drawn) [4-androstene-3,17β-diol] | – | 3 to 4 h | ≤ 90 min
